Like-named read-outs stand apart in the source and are kept apart here.
How the values were obtained:
[1] = system: MCF7 (breast) cancer cells; assay: SRB cytotoxicity assay, MCF7; format: cell-based, human; details: maximum tested concentration 50 µM, read-out: IC50 ± SEM, MCF7
Experimental: (§1) MCF7 (breast) or N87 (stomach) cancer cells were grown in Roswell Park Memorial Institute-1640 (RPMI-1640) medium (Thermo Fisher Scientific, Inc; Waltham, MA, USA), supplemented with 10% heat inactivated fetal bovine serum (FBS), 50 units/mL of penicillin and […] of streptomycin and maintained at 37°C in a humidified atmosphere containing 5% CO2. The cells were maintained as “monolayer culture” by serial subculturing.
(§2) Cytotoxicity was determined using Sulforhodamine B (SRB) method as previously described by Skehan et al. ([66]). Exponentially growing MCF7 and N87 cells were collected using 0.25% Trypsin-EDTA and were then seeded in 96-well plates at a density of 1000-2000 cells/well in 10% FBS and penicillin/streptomycin supplemented RPMI-1640 medium. After 24 h, cells were treated with different concentrations of test compounds and incubated for 72 h at 37°C in a humidified atmosphere containing 5% CO2. Next, the cells were fixed by adding trichloroacetic acid (TCA, 10% final conc. in wells) directly to the wells and incubated for 1 h at 4°C, then cells were washed with distilled water 5 times to remove excess TCA, media, serum proteins, and metabolites, followed by air drying. After that, the fixed cells were stained with 0.4% SRB dissolved in 1% acetic acid for 10 min at room temperature, and excess stain was removed by quickly rinsing with 1% acetic acid. The residual acetic acid was removed completely by air drying the plates for 24 h, and the dye was solubilized with Tris buffer (pH= 7.4, 10 mM) for 5 min on a shaker at 1600 rpm. The optical density (OD) of each well was measured spectrophotometrically at 564 nm with an ELISA microplate reader (ChroMate-4300, FL, USA). The IC50 values (concentration of drug resulting in 50% reduction in cell survival) were calculated according to the equation for Boltzman sigmoidal concentration–response curve using the nonlinear regression fitting models (Graph Pad, Prism Version 5).

K562 leukemia cell line = assay: CellTiter-Blue cell viability assay, K562; format: cell-based; details: Homo sapiens, CellTiter-Blue, 48 h, maximum tested concentration 20 µM, read-out: IC50 ± SEM, K562
Experimental: (§3) HL60, K562, MV4-11 and NB4 were purchased from CLS Cell Line Service GmbH (Eppelheim, Germany). All cell lines were cultured in RPMI-1640 medium supplemented with 10% fetal bovine serum (FBS) (Thermo Fisher Scientific) and 0.1% ciprofloxacin (2.5mg/ml; Cipla Limited; Mumbai, India), and were maintained at 37°C in the presence of 21% O2 and 5% CO2.
(§4) Cell viability was determined using the CellTiter®-Blue Cell Viability Assay kit (Promega, Madison, WI, USA). Approximately 10^4 cells were counted and plated in a 96-well plate in the presence of test compounds ranging from 0.01 to 10 or 20 µM in triplicate and were incubated for 48 h at 37°C in a humidified incubator. After the incubation period was complete, 20 µL of CellTiter®-Blue Cell Viability Assay reagent was added to each well and incubated for additional 2 h for the development of florescence. Florescence was measured at Ex/Em 540/590 on SpectraMax® i3 Multi-Mode microplate reader (Molecular Devices, LLC; San Jose, CA, USA) and plotted against drug concentration to determine the IC50 of the test compounds. The IC50 was obtained by non-linear regression model using GraphPad Prism 6.07 (GraphPad Software, Inc, USA).

HL60 leukemia cell line = assay: CellTiter-Blue cell viability assay, HL60; format: cell-based; details: Homo sapiens, HL-60; CellTiter-Blue, 48 h; maximum tested concentration 20 µM; read-out: IC50 ± SEM, HL60
Experimental: as §3, §4

[2] = system: N87 (stomach) cancer cells; assay: SRB cytotoxicity assay, N87; format: cell-based; details: Homo sapiens, 72 h, maximum tested concentration 50 µM, read-out: IC50 ± SEM, N87
Experimental: as §1, §2

HCT116 cell line = assay: MTT anti-proliferative assay, HCT116; format: cell-based, human; details: maximum tested concentration 50 µM, read-out: IC50 ± SEM, HCT116
Experimental: The test compounds were evaluated for anti-proliferative activity using the MTT viability assay against HCT116 cell line. Cells were seeded in triplicate in 96-well plates at a density of 10x 10^3 cells/mL in a total volume of 200 µL per well. 0.1% of DMSO was used as a vehicle control. Each well was treated with 2 µL test compounds, which had been pre-prepared as stock solutions in […] to furnish the concentration range of study, 0.1 µM to 50 µM, and re-incubated for a further 72 h at 37°C in a humidified atmosphere containing 5% CO2. The culture medium was then removed, and the cells were washed with 100 µL PBS and 100 µL MTT was added, to reach a final concentration of 1 mg/mL MTT. Cells were incubated for 3 h in darkness at 37°C. After that, MTT solution was removed and MTT was solubilized by adding […] DMSO. The cells were maintained at room temperature in darkness for 20 min to ensure thorough color diffusion before reading the absorbance using a microplate reader at 570 nm. All experiments were conducted in triplicates. Results were expressed as percentage viability relative to vehicle control (100%). Dose response curves were plotted and IC50 values (concentration of drug resulting in 50% reduction in cell survival) were obtained using the commercial software package Prism (GraphPad Software, Inc., La Jolla, CA, USA).

[3] = system: MV4-11 leukemia cell line; assay: CellTiter-Blue cell viability assay, MV4-11; format: cell-based; details: Homo sapiens, CellTiter-Blue, 48 h, maximum tested concentration 20 µM, read-out: IC50 ± SEM, MV4-11
Experimental: as §3, §4

[4] = system: HT-29 colon cancer cell line; design: method as in PMID 29617135; details: read-out: GI50, HT29 (Colon Cancer); cited from earlier work

Row | Compound | melting point | IC50 (K562 leukemia cell line) | IC50 (HL60 leukemia cell line) | IC50 (HCT116 cell line; Homo sapiens, HCT-116, 72 h) | IC50 [3] | IC50 (HCT116 cell line; 72 h) | IC50 ([1]; Homo sapiens, MCF7, 72 h) | IC50 [2] | IC50 ([1]; 72 h) | GI50 [4]
1 | CCC(=O)Nc1ccc(CC(=O)NCc2ccccc2)cc1 [Compound 4b, N-(4-(2-(benzylamino)-2-oxoethyl)phenyl)propionamide] | 210 °C | > 20 µM | > 20 µM | > 50 µM | > 20 µM |  | 27.7 ± 9.38 µM | 32 ± 6.34 µM |  | 
2 | Nc1ccc(CC(=O)NCc2ccccc2)cc1 [Compound 3a, 2-(4-aminophenyl)-N-benzylacetamide] | 140 to 141 °C |  |  | > 100 µM |  | > 50 µM | > 100 µM | > 50 µM | > 50 µM | 
3 | O=C(Cc1ccc(NC(=O)c2ccccc2)cc1)NCc1ccccc1 [Compound 4c, N-(4-(2-(benzylamino)-2-oxoethyl)phenyl)benzamide] | 212 °C | > 20 µM | 5.27 ± 1.94 µM | 19.7 ± 4.79 µM | 11.9 ± 0.96 µM |  | 5.11 ± 3.03 µM | > 50 µM |  | 
4 | CC(=O)Nc1ccc(CC(=O)NCc2ccccc2)cc1 [Compound 4a, 2-(4-acetamidophenyl)-N-benzylacetamide] |  |  |  | 18.8 µM |  | 18.8 ± 3.06 µM | 29.3 µM | > 50 µM | 29.3 ± 4.64 µM | 
5 | O=C(Cc1ccc(-c2ccccc2)cc1)NCc1cccc(F)c1 [KX1-136] |  |  |  |  |  |  |  |  |  | 877 nM

The next lines start with results.

Row | melting point | IC50 (K562 leukemia cell line) | IC50 (HL60 leukemia cell line) | IC50 (HCT116 cell line; Homo sapiens, HCT-116, 72 h) | IC50 [3] | IC50 (HCT116 cell line; 72 h) | Compound | IC50 ([1]; Homo sapiens, MCF7, 72 h) | IC50 [2] | IC50 ([1]; 72 h) | GI50 [4]
6 | 190 °C |  |  |  |  |  | O=C(Cc1ccc(NC(=O)c2ccc(Cl)cc2)cc1)NCc1ccccc1 [Compound 4f, N-(4-(2-(benzylamino)-2-oxoethyl)phenyl)-4-chlorobenzamide] | > 50 µM | 48.3 ± 7.44 µM |  | 
7 | 140 °C | > 20 µM | > 20 µM | > 50 µM | > 20 µM |  | Cc1ccc(S(=O)(=O)Nc2ccc(CC(=O)NCc3ccccc3)cc2)cc1 [Compound 4g, N-benzyl-2-(4-((4-methylphenyl)sulfonamido)phenyl)acetamide] | > 50 µM |  |  | 
8 | 214 °C | 2.68 ± 0.03 µM | 2.96 ± 0.25 µM | 19 ± 4.18 µM | 3.2 ± 0.09 µM |  | O=C(Cc1ccc(NC(=O)c2cccc(F)c2)cc1)NCc1ccccc1 [Compound 4d, N-(4-(2-(benzylamino)-2-oxoethyl)phenyl)-3-fluorobenzamide] | 6.55 ± 1.34 µM | > 50 µM |  | 

— article PMC9166630, “SAR Probing of KX2-391 Provided Analogues With Juxtaposed Activity Profile Against Major Oncogenic Kinases” (Frontiers in Oncology, 2022)
